Experimental data from the NIST ThermoML archive (doi:10.1021/je901020a).
Values joined by “and” are separate entries in the source; they are usually repeats but may differ in a detail not shown here. Equal entries are not always repeated.

Columns and labels:
[1] = 101 kPa, Liquid; for speed of sound: Pulse-echo method
[2] = refractive index (Na D-line) (dimensionless); details: 101.33 kPa, Liquid, Standard Abbe refractometry
[3] = xn = mol fraction of the nth substance listed; details: 101 kPa, Liquid; for speed of sound: Pulse-echo method
[4] = refractive index (Na D-line) (dimensionless); xn = mol fraction of the nth substance listed; details: 101 kPa, Liquid, Standard Abbe refractometry

Cc1cccc(C)c1 [1,3-dimethylbenzene]
Details	mass density, [1] [kg/m3]	refractive index, [2]	speed of sound, [1] [m/s]
298.15 K	859.8	1.49466	1321
313.15 K	846.9	1.48653	1259

C1CCCCCCC1 [cyclooctane]
Details	mass density, [1] [kg/m3]	refractive index, [2]	speed of sound, [1]
298.15 K	831.5	1.45598	1391 m/s
313.15 K	819.2	1.44877	1326 m/s and 1325 m/s

Cc1ccc(C)cc1 [1,4-dimethylbenzene]
Details	mass density, [1] [kg/m3]	refractive index, [2]	speed of sound, [1] [m/s]
298.15 K	856.6	1.49312	1310
313.15 K	843.5	1.48444	1248

Cc1cc(C)cc(C)c1 [1,3,5-trimethylbenzene]
Details	mass density, [1] [kg/m3]	refractive index, [2]	speed of sound, [1] [m/s]
298.15 K	861.1	1.49693	1336
313.15 K	848.8	1.48923	1277

CC1CCCCC1 [methylcyclohexane]
Details	mass density, [1]	refractive index, [2]	speed of sound, [1] [m/s]
298.15 K	765 kg/m3 and 765.1 kg/m3	1.42062	1215
313.15 K	751.9 kg/m3	1.41274 and 1.41274	1150

C1CCCC1 [cyclopentane]
Details	mass density, [1] [kg/m3]	refractive index, [2]	speed of sound, [1] [m/s]
298.15 K	740	1.40292	1204
313.15 K	725	1.39456	1130

C1CCCC1 [cyclopentane] + Cc1cc(C)cc(C)c1
Details	mass density, [3] [kg/m3]	refractive index, [4]	speed of sound, [3] [m/s]
298.15 K, x1 = 0.0383	857.8	1.49446	1332
298.15 K, x1 = 0.0884	853.3	1.49105	1325
298.15 K, x1 = 0.1869	843.9	1.48398	1311
298.15 K, x1 = 0.2531	837.5	1.47925	1302
298.15 K, x1 = 0.3849	823.5	1.46883	1283
298.15 K, x1 = 0.4879	811.9	1.4596	1269
298.15 K, x1 = 0.5891	799.5	1.45045	1255
298.15 K, x1 = 0.6926	786	1.4403	1241
298.15 K, x1 = 0.7807	774	1.43111	1229
298.15 K, x1 = 0.8901	757.9	1.41728	1216
298.15 K, x1 = 0.9487	748.6	1.40994	1210
298.15 K, x1 = 1	740	1.40292	1204
313.15 K, x1 = 0.0414	845.1	1.48675	1271
313.15 K, x1 = 0.0948	840.2	1.48324	1263
313.15 K, x1 = 0.1986	830.2	1.47585	1248
313.15 K, x1 = 0.2985	819.9	1.46786	1232
313.15 K, x1 = 0.4078	807.7	1.45906	1216
313.15 K, x1 = 0.4703	800.3	1.45335	1206
313.15 K, x1 = 0.6043	783.5	1.4411	1186
313.15 K, x1 = 0.7006	770.4	1.4312	1171
313.15 K, x1 = 0.8048	755.4	1.42003	1155
313.15 K, x1 = 0.9074	739.7	1.40648	1140
313.15 K, x1 = 0.9595	731.4	1.40014	1134
313.15 K, x1 = 1	725	1.39456	1130

Cc1ccccc1C [1,2-dimethylbenzene] + C1CCCCC1
Details	mass density, [3] [kg/m3]	refractive index, [4]	speed of sound, [3] [m/s]
298.15 K, x2 = 0	875.4	1.50262	1350
298.15 K, x2 = 0.0471	870.8	1.49895	1343
298.15 K, x2 = 0.0981	865.5	1.49488	1336
298.15 K, x2 = 0.1961	855.2	1.48705	1323
298.15 K, x2 = 0.2986	844.5	1.47886	1310
298.15 K, x2 = 0.3979	834	1.47092	1298
298.15 K, x2 = 0.4964	823.8	1.46293	1288
298.15 K, x2 = 0.5975	813.5	1.45493	1278
298.15 K, x2 = 0.6978	803.2	1.44691	1269
298.15 K, x2 = 0.796	793.4	1.43924	1263
298.15 K, x2 = 0.8995	783.4	1.43126	1257
298.15 K, x2 = 0.9512	778.6	1.42739	1255
313.15 K, x2 = 0	862.9	1.49466	1289
313.15 K, x2 = 0.0528	857.4	1.49053	1282
313.15 K, x2 = 0.0977	852.7	1.48716	1275
313.15 K, x2 = 0.1958	842.3	1.47934	1261
313.15 K, x2 = 0.2169	840	1.47754	1258
313.15 K, x2 = 0.4011	820.4	1.46285	1234
313.15 K, x2 = 0.4999	809.9	1.45473	1222
313.15 K, x2 = 0.5976	799.6	1.44694	1211
313.15 K, x2 = 0.6971	789.4	1.43921	1201
313.15 K, x2 = 0.7994	779	1.43094	1193
313.15 K, x2 = 0.8995	769.1	1.42311	1186
313.15 K, x2 = 0.9484	764.5	1.41926	1183

Cc1cccc(C)c1 [1,3-dimethylbenzene] + C1CCCCC1
Details	mass density, [3] [kg/m3]	refractive index, [4]	speed of sound, [3] [m/s]
298.15 K, x2 = 0	859.8	1.49466	1321
298.15 K, x2 = 0.0346	856.9	1.49219	1317
298.15 K, x2 = 0.096	851.4	1.48781	1310
298.15 K, x2 = 0.1974	842.2	1.48052	1300
298.15 K, x2 = 0.2879	834.1	1.47391	1291
298.15 K, x2 = 0.3982	824.1	1.46589	1281
298.15 K, x2 = 0.5005	815	1.45851	1273
298.15 K, x2 = 0.6019	806.2	1.45128	1267
298.15 K, x2 = 0.6976	797.9	1.44447	1261
298.15 K, x2 = 0.7985	789.4	1.43723	1257
298.15 K, x2 = 0.9021	781.1	1.42992	1254
298.15 K, x2 = 0.9509	777.4	1.42673	1254
313.15 K, x2 = 0	846.9	1.48653	1259
313.15 K, x2 = 0.0355	843.7	1.48408	1255
313.15 K, x2 = 0.095	838.3	1.47988	1248
313.15 K, x2 = 0.1903	829.6	1.47305	1238
313.15 K, x2 = 0.2937	820.2	1.46566	1227
313.15 K, x2 = 0.3969	810.8	1.45826	1217
313.15 K, x2 = 0.4919	802.3	1.45153	1209
313.15 K, x2 = 0.5952	793.1	1.44402	1200
313.15 K, x2 = 0.6963	784.3	1.43677	1193
313.15 K, x2 = 0.7968	775.5	1.42954	1187
313.15 K, x2 = 0.8984	767.3	1.42246	1183
313.15 K, x2 = 0.9496	763.45	1.41885	1182

C1CCCCC1 [cyclohexane] + Cc1cc(C)cc(C)c1
x1 = 1
Details	mass density, [3] [kg/m3]	refractive index, [4]	speed of sound, [3] [m/s]
298.15 K	773.9	1.4236	1255
313.15 K	759.6	1.41516	1182

C1CCCC1 [cyclopentane] + Cc1ccccc1C
Details	mass density, [3] [kg/m3]	refractive index, [4]	speed of sound, [3] [m/s]
298.15 K, x1 = 0.045	870.7	1.49951	1342
298.15 K, x1 = 0.0924	865.7	1.49549	1336
298.15 K, x1 = 0.1949	854.1	1.48698	1319
298.15 K, x1 = 0.2932	842.5	1.4791	1304
298.15 K, x1 = 0.3903	830.4	1.47003	1289
298.15 K, x1 = 0.4954	816.6	1.46059	1273
298.15 K, x1 = 0.594	802.9	1.4507	1259
298.15 K, x1 = 0.6958	788.1	1.43935	1244
298.15 K, x1 = 0.7939	773	1.42832	1231
298.15 K, x1 = 0.8926	757.3	1.41649	1217
298.15 K, x1 = 0.9503	747.9	1.40949	1210
298.15 K, x1 = 1	740	1.40292	1204
313.15 K, x1 = 0.072	855	1.48922	1277
313.15 K, x1 = 0.0931	852.7	1.48739	1274
313.15 K, x1 = 0.1919	841.5	1.47936	1257
313.15 K, x1 = 0.2934	829.3	1.47048	1241
313.15 K, x1 = 0.3772	818.8	1.46299	1227
313.15 K, x1 = 0.4855	804.6	1.45278	1209
313.15 K, x1 = 0.5894	790.1	1.44238	1192
313.15 K, x1 = 0.685	776.2	1.43216	1177
313.15 K, x1 = 0.8099	756.9	1.41833	1158
313.15 K, x1 = 0.8912	743.6	1.40862	1146
313.15 K, x1 = 0.9479	734.1	1.402	1138
313.15 K, x1 = 1	725	1.39456	1130

Cc1ccccc1C [1,2-dimethylbenzene] + C1CCCC1
x2 = 0
Details	mass density, [3] [kg/m3]	refractive index, [4]	speed of sound, [3] [m/s]
298.15 K	875.4	1.50262	1350
313.15 K	862.9	1.49466	1290

Cc1ccccc1C [1,2-dimethylbenzene] + CC1CCCCC1
x2 = 0
Details	mass density, [3] [kg/m3]	refractive index, [4]	speed of sound, [3] [m/s]
298.15 K	875.4	1.50262	1350
313.15 K	862.9	1.49466	1289
